For 2 molecules, IC50 results are on record in PMC11226702, “Time-resolved crystallography of boric acid binding to the active site serine of the β-lactamase CTX-M-14 and subsequent 1,2-diol esterification” (Communications Chemistry, 2024).

The target in test [1] is T1, β-lactamase CTX-M-14 (Klebsiella pneumoniae, UniProt A0A0H3H219).
T1 construct: gene KPHS_p301310
Briefly: time-resolved serial crystallography, formed in situ from Ser70-bound boric acid and glycerol (occupancy […]); IC50 is for boric acid combined with glycerol. Type of test: biochemical.

Test [2] addresses T1, β-lactamase CTX-M-14. The test is described as follows: time-resolved serial crystallography (bound to Ser70, occupancy up to […]); IC50 by photometric cefotaxime hydrolysis assay. Type of test: biochemical.

T1 sequence (A0A0H3H219 entry or part of it): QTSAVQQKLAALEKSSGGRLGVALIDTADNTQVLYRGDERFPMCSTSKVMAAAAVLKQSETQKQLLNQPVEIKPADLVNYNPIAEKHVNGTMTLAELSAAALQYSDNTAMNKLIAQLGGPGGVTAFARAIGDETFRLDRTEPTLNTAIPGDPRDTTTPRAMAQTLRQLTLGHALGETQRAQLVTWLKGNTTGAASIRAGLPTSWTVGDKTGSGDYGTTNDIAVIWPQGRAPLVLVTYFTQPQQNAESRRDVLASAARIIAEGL

In the case of `OCC1COB(O)O1` (racemic) [GBE, glycerol boric acid diester], the IC50 (usually the concentration that gives 50% inhibition) on β-lactamase CTX-M-14 [1] worked out at 3.1 ± 0.4 mM.

At β-lactamase CTX-M-14 [2], `OB(O)O` [BAB, boric acid] showed an IC50 of 2.9 ± 0.4 mM.
